System: 857933-349-R-J2-PDC complex spheroid viability
Experiment: Anticancer human tumor 857933-349-R-J2-PDC patient-derived colon adenocarcinoma cell line growth inhibition [POLQ]
Conditions: for IC50: curve of first compound; for viability, T/C: stronger effect = lower value
Outline: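 PDC + HUVEC + MSC complex spheroids; POLQ inhibitors ± partner drugs; top conc. at/near clinical Cmax, else 10 microM (SN-38 1 microM), half-log dilutions; 37 degrees C, 5% CO2.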

[1] = second compound 0.0316 µM, first compound 0.0316 µM
[2] = second compound 0.0316 µM, first compound 0.1 µM
[3] = second compound 0.0316 µM, first compound 0.316 µM
[4] = second compound 0.0316 µM, first compound 1 µM
[5] = second compound 0.1 µM, first compound 0.0316 µM
[6] = second compound 0.1 µM, first compound 0.1 µM
[7] = second compound 0.1 µM, first compound 0.316 µM
[8] = second compound 0.1 µM, first compound 1 µM
[9] = second compound 0.316 µM, first compound 0.0316 µM
[10] = second compound 0.316 µM, first compound 0.1 µM
[11] = second compound 0.316 µM, first compound 0.316 µM
[12] = second compound 0.316 µM, first compound 1 µM
[13] = second compound 1 µM, first compound 0.0316 µM
[14] = second compound 1 µM, first compound 0.1 µM
[15] = second compound 1 µM, first compound 0.316 µM
[16] = second compound 1 µM, first compound 1 µM
[17] = second compound 3.16 µM, first compound 0.0316 µM
[18] = second compound 3.16 µM, first compound 0.1 µM
[19] = second compound 3.16 µM, first compound 0.316 µM
[20] = second compound 3.16 µM, first compound 1 µM
[21] = second compound 10 µM, first compound 0.0316 µM
[22] = second compound 10 µM, first compound 0.1 µM
[23] = second compound 10 µM, first compound 0.316 µM
[24] = second compound 10 µM, first compound 1 µM
[25] = second compound 0.0316 µM, first compound 3.16 µM
[26] = second compound 0.0316 µM, first compound 10 µM
[27] = second compound 0.1 µM, first compound 3.16 µM
[28] = second compound 0.1 µM, first compound 10 µM
[29] = second compound 0.316 µM, first compound 3.16 µM
[30] = second compound 0.316 µM, first compound 10 µM
[31] = second compound 1 µM, first compound 3.16 µM
[32] = second compound 1 µM, first compound 10 µM
[33] = second compound 3.16 µM, first compound 3.16 µM
[34] = second compound 3.16 µM, first compound 10 µM
[35] = second compound 10 µM, first compound 3.16 µM
[36] = second compound 10 µM, first compound 10 µM
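Further: spheroids exposed to compounds for seven days before readout.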

SMILES: C=CCn1c(=O)c2cnc(Nc3ccc(N4CCN(C)CC4)cc3)nc2n1-c1cccc(C(C)(C)O)n1 + COC1C(OC(N)=O)C(O)C(Oc2ccc3c(O)c(NC(=O)c4ccc(O)c(CC=C(C)C)c4)c(=O)oc3c2C)OC1(C)C
- IC50 (second compound 0.0316 µM): > 1 µM
- IC50 (second compound 0.1 µM): > 1 µM
- IC50 (second compound 0.316 µM): > 1 µM
- IC50 (second compound 1 µM): > 1 µM
- IC50 (second compound 3.16 µM): > 1 µM
- IC50 (second compound 10 µM): > 1 µM
- viability, T/C (second compound 0.0316 µM, first compound 0.00316 µM): 89.8%
- viability, T/C (second compound 0.0316 µM, first compound 0.01 µM): 96.5%
- viability, T/C [1]: 76.7%
- viability, T/C [2]: 81.7%
- viability, T/C [3]: 84.6%
- viability, T/C [4]: 80.9%
- viability, T/C (second compound 0.1 µM, first compound 0.00316 µM): 97.9%
- viability, T/C (second compound 0.1 µM, first compound 0.01 µM): 106%
- viability, T/C [5]: 112%
- viability, T/C [6]: 89.4%
- viability, T/C [7]: 74.3%
- viability, T/C [8]: 64.7%
- viability, T/C (second compound 0.316 µM, first compound 0.00316 µM): 92.4%
- viability, T/C (second compound 0.316 µM, first compound 0.01 µM): 95.3%
- viability, T/C [9]: 91%
- viability, T/C [10]: 78.8%
- viability, T/C [11]: 79.2%
- viability, T/C [12]: 64.1%
- viability, T/C (second compound 1 µM, first compound 0.00316 µM): 102%
- viability, T/C (second compound 1 µM, first compound 0.01 µM): 80.4%
- viability, T/C [13]: 88.7%
- viability, T/C [14]: 87.3%
- viability, T/C [15]: 95.8%
- viability, T/C [16]: 61.8%
- viability, T/C (second compound 3.16 µM, first compound 0.00316 µM): 92%
- viability, T/C (second compound 3.16 µM, first compound 0.01 µM): 86.6%
- viability, T/C [17]: 74.6%
- viability, T/C [18]: 74.2%
- viability, T/C [19]: 91.1%
- viability, T/C [20]: 77.5%
- viability, T/C (second compound 10 µM, first compound 0.00316 µM): 83.8%
- viability, T/C (second compound 10 µM, first compound 0.01 µM): 86.8%
- viability, T/C [21]: 91.8%
- viability, T/C [22]: 72.5%
- viability, T/C [23]: 83.9%
- viability, T/C [24]: 67.5%

SMILES: CC1COCCN1c1cc(-c2ccnn2C)c2ccnc(-c3ccn[nH]3)c2n1 (stereo unspecified) + COC1C(OC(N)=O)C(O)C(Oc2ccc3c(O)c(NC(=O)c4ccc(O)c(CC=C(C)C)c4)c(=O)oc3c2C)OC1(C)C
- IC50 (second compound 0.0316 µM): 0.209 µM
- IC50 (second compound 0.1 µM): 0.282 µM
- IC50 (second compound 0.316 µM): 0.157 µM
- IC50 (second compound 1 µM): 0.257 µM
- IC50 (second compound 3.16 µM): 0.17 µM
- IC50 (second compound 10 µM): 0.311 µM
- viability, T/C [1]: 89.2%
- viability, T/C [2]: 66.2%
- viability, T/C [3]: 40.3%
- viability, T/C [4]: 35.8%
- viability, T/C [25]: 39.2%
- viability, T/C [26]: 48.6%
- viability, T/C [5]: 80.3%
- viability, T/C [6]: 77.6%
- viability, T/C [7]: 47.2%
- viability, T/C [8]: 30.7%
- viability, T/C [27]: 41.6%
- viability, T/C [28]: 52.8%
- viability, T/C [9]: 71.9%
- viability, T/C [10]: 55.7%
- viability, T/C [11]: 41.2%
- viability, T/C [12]: 37.1%
- viability, T/C [29]: 34.2%
- viability, T/C [30]: 51.7%
- viability, T/C [13]: 58.1%
- viability, T/C [14]: 73.3%
- viability, T/C [15]: 46.4%
- viability, T/C [16]: 33.6%
- viability, T/C [31]: 56.2%
- viability, T/C [32]: 50%
- viability, T/C [17]: 76.4%
- viability, T/C [18]: 57.5%
- viability, T/C [19]: 40.6%
- viability, T/C [20]: 37%
- viability, T/C [33]: 38%
- viability, T/C [34]: 48.7%
- viability, T/C [21]: 65.2%
- viability, T/C [22]: 63.2%
- viability, T/C [23]: 50.1%
- viability, T/C [24]: 39.2%
- viability, T/C [35]: 49.1%
- viability, T/C [36]: 50.3%

SMILES: O=c1[nH]cc(F)c(=O)[nH]1 + Nc1ccc(C#CCN(C(=O)Cc2ncc(C(F)(F)F)cc2C(F)(F)F)c2ccc(F)cc2)nn1
- IC50 (second compound 0.0316 µM): 2.15 µM
- IC50 (second compound 0.1 µM): 2.13 µM
- IC50 (second compound 0.316 µM): 2.45 µM
- IC50 (second compound 1 µM): 2.28 µM
- IC50 (second compound 3.16 µM): 2.33 µM
- IC50 (second compound 10 µM): 2.17 µM
- viability, T/C [1]: 101%
- viability, T/C [2]: 98.7%
- viability, T/C [3]: 100%
- viability, T/C [4]: 83.4%
- viability, T/C [25]: 33.1%
- viability, T/C [26]: 25.1%
- viability, T/C [5]: 102%
- viability, T/C [6]: 93.5%
- viability, T/C [7]: 93.3%
- viability, T/C [8]: 75.2%
- viability, T/C [27]: 36.5%
- viability, T/C [28]: 22.7%
- viability, T/C [9]: 106%
- viability, T/C [10]: 120%
- viability, T/C [11]: 97.2%
- viability, T/C [12]: 84.4%
- viability, T/C [29]: 39.2%
- viability, T/C [30]: 23.3%
- viability, T/C [13]: 106%
- viability, T/C [14]: 103%
- viability, T/C [15]: 97.5%
- viability, T/C [16]: 81.6%
- viability, T/C [31]: 37.2%
- viability, T/C [32]: 22.4%
- viability, T/C [17]: 105%
- viability, T/C [18]: 106%
- viability, T/C [19]: 91%
- viability, T/C [20]: 83.3%
- viability, T/C [33]: 37.2%
- viability, T/C [34]: 21.5%
- viability, T/C [21]: 95.7%
- viability, T/C [22]: 87.1%
- viability, T/C [23]: 92.7%
- viability, T/C [24]: 87.5%
- viability, T/C [35]: 31.8%
- viability, T/C [36]: 27.8%

Reference: PubChem BioAssay AID1963836 (Molecular Pharmacology Branch, DTP, NCI, 2024)
